No end group written: not given here.
Key:
[1] = tested on: rat aortic smooth muscle cells (RASMCs); assay: RASMC proliferation (PCNA immunostaining, EZ-CyTox cell viability assay); format: cell-based; conditions: synthetic conditions (10% FBS), 3 μM peptide
Description: The rat aortic smooth muscle cells (RASMCs) were isolated from the medial layer of the thoracic aorta derived from male Sprague-Dawley rats (body weight, 180-200 g) by an enzymatic reaction with collagenase (50 U/mL, Worthington) and pancreatic elastase (0.25 mg/mL, Sigma-Aldrich) for 4 hours at 37. The cells were collected and resuspended in DMEM containing 20% (v/v) fetal bovine serum. The resuspension was then plated on collagen I (Sigma-Aldrich)-coated glass coverslips and incubated at 37 in an atmosphere of 5% (v/v) CO2 and 95% (v/v) air. Human coronary smooth muscle cells (HCSMCs), pulmonary arterial endothelial cells (PAECs), and pulmonary arterial smooth muscle cells (PASMCs) were purchased from Lonza and cultured in EBM or SmBM (Lonza) supplemented with 0.5 mg/mL hEGF, […], 1 mg/mL hFGF, […] gentamicin/amphotericin-B, and 5% fetal bovine serum. All the cells were cultured at 37 in 5% (v/v) CO2 and 95% (v/v) air. RASMCs and HCSMCs were, respectively, plated at the densities of 1×10^4 cells/cm^2 and 1×10^5 cells/cm^2 for immunostaining and western blotting experiments. For RASMC and PASMC cell proliferation experiments, these cells were cultured in fetal bovine serum-free media for 3 days, and then proliferation was induced by serum addition.
Rat aortic smooth muscle cells (RASMCs) were fixed in 4% (w/v) paraformaldehyde at room temperature for 10 min, washed with PBS, and then transmitted with 0.1% (v/v) Triton X-100 in PBS for 40 min. After washing and blocking with 3% (w/v) BSA in PBS, the cells were incubated overnight at room temperature with antibodies against SERCA2a (1:250), SERCA2b (1:250), and PCNA (1:50). On the following day, the cells were washed with PBS and incubated with anti-rabbit and anti-mouse IgG conjugated to Alexa Fluor 488 and 594, respectively, for 1 hour at room temperature. The cells were treated with FluoroGuard antifade reagent (Bio-Rad, Hercules, Calif., USA), and the coverslips were examined under a fluorescent microscope. […]

[2] = tested on: SERCA2a; conditions: in vitro and ex vivo; Oh J G et al. (2013); cited from earlier work

Sequence: RAETIEMPQ (not fully specified) [ψPLB-SE, 9-mer PP1 decoy peptide mimicking phosphorylated PLB; conjugated via GGG linker to cell penetrating peptide dNP2 or TAT]
- PCNA expression (active cell division) ([1]; RASMCs): completely blocked
- increased proliferation of RASMCs (cell proliferation assay) ([1]; 24 hours): inhibited
- SERCA2a activity in the heart after ischemia/reperfusion [2]: restored

From patent US11426441B2, “Composition comprising protein phosphatase 1 inhibitory peptide for treating vascular diseases” (BethphaGen Inc., priority 2016, dated 2022)
